Results from patent US7022737B2, “Manipulating nitrosative stress to kill pathologic microbes, pathologic helminths and pathologically proliferating cells or to upregulate nitrosative stress defenses” (Duke University, priority 1996, dated 2006).

Assays:
restenosis [1] = test: Patients with coronary stenosis treated to prevent restenosis; format: in vivo; conditions: BSO 4 mmol/kg four times a day intracoronary for one week, 32P-implanted Palmaz-Schatz stent
trypanosomes = test: Patient with trypanosome infection; format: in vivo; conditions: L-buthionine-S-sulfoximine 3 mmol/kg p.o. every 4 hours and S-nitrosoglutathione iv 10 mg/kg every 8 hours, one week
Description: A person presents with high fever, moderate lymphadenopathy and reports that they have lost 40 pounds in the last month, two months after returning from a safari in sub-Saharan Africa. On questioning, the patient reports having developed during the safari an ulcer on their forearm two days following a bite by a fly. […] The patient is hospitalized and given L-buthionine-S-sulfoximine at a dose of 3 mmol/kg p.o. every 4 hours for one week. In addition, the patient receives S-nitrosoglutathione iv at a dose of 10 mg/kg every 8 hours for one week.

restenosis [2] = test: Patients with coronary stenosis treated to prevent restenosis; format: in vivo
Source text: BSO therapy is continued for one week.
A person with blue eyes and gray hair presents with chest pain. […] The patient undergoes balloon angioplasty and placement of a Palmaz-Schatz stent, which is P^32-implanted and coated with a cyclodextran polymer to which BSO is attached by an ester linkage.
A patient similar to the one described above undergoes balloon angioplasty and placement of a Palmaz-Schatz stent which is coated with cyclodextran polymer to which ethyl maleate is attached by an ester linkage. […]
A person with restenosis six months post angioplasty has a Palmaz-Schatz stent placed. The stent is coated with a porous polymer containing 10% of the siderophore ferrioxamine B and 0.1% each of interleukin-1 and interferon-gamma. The latter agents induce the local expression of the inducible isoform of nitric oxide synthase. […]

[3] = target: T1, E. coli gamma-glutamylcysteine synthetase (Escherichia coli, UniProt P0A6W9); test: Inactivation of E. coli gamma-GCS by homocysteine sulfoximines (preincubation with ATP, residual activity by coupled PK/LDH assay); format: biochemical; conditions: 100 μM inhibitor
T1 construct: made in house
Description: E. coli gamma-GCS was isolated from bacterial cells engineered to overexpress the enzyme; the isolation procedure was similar to that used previously to isolate mammalian gamma-GCS. […] The enzyme was assayed in reaction mixtures (final volume=1.0 ml) containing: 150 mM Tris·HCl, pH 8.2, 100 mM KCl, 25 mM MgCl2, 7.5 mM ATP, 7.5 mM phosphoenolpyruvate, 0.3 mM EDTA, 10 mM L-glutamate, 10 mM L-α-aminobutyrate (an L-cysteine analog), 0.3 mM NADH, 5 IU pyruvate kinase, and 5 IU lactate dehydrogenase. Reaction was initiated by adding gamma-GCS; in control studies, L-α-aminobutyrate was omitted from the reaction mixture. In this assay, pyruvate kinase (PK) and lactate dehydrogenase (LDH) are added in excess to detect formation of ADP, one of the products of the gamma-GCS reaction. The relevant enzyme reactions are shown as equations 1–3 below. Oxidation of NADH to NAD^+ is followed and quantitated spectrophotometrically at 340 nm (1 μmol oxidation gives ΔOD=−6.2) and is directly proportional to product formation by gamma-GCS. [drawing 2]
Inhibition by homocysteine sulfoximines was carried out by preincubating the E. coli gamma-GCS with potential inhibitors in the presence of ATP and then removing aliquots of that mixture at specific times and assaying for residual activity using the assay procedure described above. The preincubation reaction mixtures contained (final volume=400 μl) the following: 210 mM Tris·HCl, pH 8.2, 142 mM KCl, 36 mM MgCl2, 10 mM ATP, 0.4 mM EDTA, various amounts of sulfoximine, and gamma-GCS. At intervals, 50 μl aliquots were removed and added to 1.0 ml assay reaction mixtures to determine residual activity spectrophotometrically. Results of a study indicate that E. coli gamma-GCS loses about 27% of its activity over 30 minutes in the absence of added inhibitors; this loss of activity represents an inherent instability in the enzyme when incubated under these reaction conditions in this particular experiment. […]

small cell lung cancer = test: Patients with small cell lung cancer; format: in vivo; conditions: cyclophosphamide, NO-substituted doxirubicin IV and BSO 4 mmol/kg IV four times/day; chest X-ray in two months
Description: A person with a 80 pack-year history of smoking presents with hemoptosis and weight loss. […] The patient is given a combination therapy of cyclophosphamide (750 mg/m^2) plus NO-substituted doxirubicin (40 mg/m^2) and vincristine (2 mg) (all administered i.v.). The therapeutic regimen is repeated once at three weeks.
A person with a 20 pack/year history of smoking presents with cough. […] The patient receives cyclophosphamide (750 mg/m^2 and NO-substituted doxirubicin (administered IV)). The patient also receives L-buthionine-S-sulfoximine, i.e., BSO (4 mmol/kg IV four times/day).

T1 sequence (P0A6W9 whole entry): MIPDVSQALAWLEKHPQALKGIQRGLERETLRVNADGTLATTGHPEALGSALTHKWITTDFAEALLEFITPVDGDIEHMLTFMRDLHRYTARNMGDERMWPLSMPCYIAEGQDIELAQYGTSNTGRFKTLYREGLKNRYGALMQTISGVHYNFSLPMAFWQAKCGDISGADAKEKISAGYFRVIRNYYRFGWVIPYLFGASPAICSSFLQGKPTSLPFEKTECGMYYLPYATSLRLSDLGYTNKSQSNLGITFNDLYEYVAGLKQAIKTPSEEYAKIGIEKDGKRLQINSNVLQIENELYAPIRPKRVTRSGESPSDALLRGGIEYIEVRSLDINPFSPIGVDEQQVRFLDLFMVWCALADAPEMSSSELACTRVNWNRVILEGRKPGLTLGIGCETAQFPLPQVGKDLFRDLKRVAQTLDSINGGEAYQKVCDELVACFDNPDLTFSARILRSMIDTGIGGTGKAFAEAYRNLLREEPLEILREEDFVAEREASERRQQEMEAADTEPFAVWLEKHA

## CCCCS(=N)(=O)CC[C@H](N)C(=O)O (stereo partly drawn) [L-buthionine-S-sulfoximine]
Restenosis [1]
  clinical outcome: repeat of their angiogram shows no restenosis
trypanosomes
  clinical outcome: blood smear is free of trypanosomes
Restenosis [2]; P^32-implanted stent coated with cyclodextran polymer with BSO attached by ester linkage
  clinical outcome: clinical restenosis does not occur
Restenosis [2]; verapamil 80 mg three times a day p.o., BSO 4 mmol/kg i.v. four times a day, NO-releasing polymer stent
  clinical outcome: repeat angiogram at six months shows no restenosis
[3]; 10 min preincubation
  inactivation of E. coli gamma-GCS: 89%
[3]; 30 min preincubation
  inactivation of E. coli gamma-GCS: virtually complete inactivation
Small cell lung cancer
  clinical outcome: decrease in size of the mass
